These results are taken from patent US9249125B2, “Pyrazole derivatives as p38 MAP inhibitors” (RESPIVERT LIMITED, priority 2012, dated 2016).

One data set deals with p38 MAPKα (Homo sapiens (Human), UniProt Q16539). Nature of the data set: p38 MAPKα enzyme inhibition (FRET, Z-LYTE). The class given is biochemical.
A further data set addresses cSrc (Homo sapiens (Human), UniProt P12931). In words: c-Src enzyme inhibition (FRET, Z-LYTE). It counts as biochemical. In outline:
(§1)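 Z-LYTE FRET kinase assay: enzyme (3000 or 2000 ng/mL stock, respectively) preincubated 2 h at RT with compound (4–0.004 μg/mL stocks), then FRET peptide plus ATP (800 μM stock for c-Src, 60 μM for Syk) added for 1 h. Protease development 1 h; phosphorylation from coumarin/fluorescein emission ratio.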

Another data set concerns the target Syk (Homo sapiens (Human), UniProt P43405). In words: Syk enzyme inhibition (FRET, Z-LYTE). It counts as biochemical. In outline:
as §1

The target of the next data set is GSK3α (Homo sapiens (Human), UniProt P49840). Nature of the data set: GSK 3α enzyme inhibition (FRET, Z-LYTE). It counts as biochemical. In a few lines:
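Phosphorylation was read as the donor (coumarin) to acceptor (fluorescein) ratio after a 1 hr protease step destroying non-phosphorylated peptide. Before this, compound (4–0.004 μg/mL stocks) sat 2 hr at RT with GSK3α (500 ng/mL stock), followed by 1 hr kinase reaction with 8 μM peptide and 40 μM ATP stocks.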

Data set [1] relates to LPS-induced TNFα release in d-U937 cells. Nature of the data set: LPS-induced TNFα release in d-U937 cells. It counts as cell-based. The settings on record: Homo sapiens, dU937, relative to 10 μg/mL BIRB796, read-out: LPS Induced Release of Cytokine in d-937 Cells TNFα REC50. In a few lines: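 PMA-differentiated (100 ng/mL, 48–72 hr) U937 cells pre-incubated with compound 2 hr, then stimulated with LPS (0.1 μg/mL, E. coli O111:B4) for 4 hr. Supernatant TNFα and IL-8 measured by sandwich ELISA; inhibition versus vehicle control, REC50 from concentration-response curve.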

Data set [2] deals with LPS-induced IL-8 release in d-U937 cells. Nature of the data set: LPS-induced IL-8 release in d-U937 cells. The class given is cell-based. Particulars: Homo sapiens, dU937, read-out: LPS Induced Release of Cytokine in d-937 Cells IL-8 IC50. In a few lines:
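Read-out: TNFα and IL-8 released into supernatant, sandwich ELISA, expressed as inhibition versus vehicle at each dose and fitted to give REC50. Cells were PMA-differentiated U937 (100 ng/mL, 48–72 hr), compound-exposed 2 hr before a 4 hr LPS stimulus (0.1 μg/mL).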

Data set [3] relates to Poly I:C-induced ICAM-1 expression in BEAS2B cells. Nature of the data set: Poly I:C-induced ICAM-1 expression in BEAS2B cells. The class given is cell-based. Particulars: Homo sapiens, BEAS-2B, read-out: Poly IC induced ICAM1 in BEAS2B IC50. In outline: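 Cell-based ELISA read at 450 nm minus 655 nm, divided by crystal violet OD595 to normalize for cell number, gave ICAM-1 levels. Readout was taken 18 hr after poly I:C (1 μg/mL, Oligofectamine) transfection of human bronchial BEAS2B cells pretreated 2 hr with test compound.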

For another data set, the system named is d-U937 cells. Nature of the data set: Cell viability: MTT assay. It counts as cell-based, human. Particulars: 1 μg/mL. In a few lines: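 MTT read-out (1 h, absorbance 550 nm) on d-U937 cells after pre-incubation with 1 or 10 μg/mL compound under two regimes: 4 h, 5% FCS, or 24 h, 10% FCS RPMI1640. Values are percent loss of viability relative to vehicle (0.5% DMSO), so increases are reported as negative.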

Sequence of cSrc (P12931 whole entry, looked up): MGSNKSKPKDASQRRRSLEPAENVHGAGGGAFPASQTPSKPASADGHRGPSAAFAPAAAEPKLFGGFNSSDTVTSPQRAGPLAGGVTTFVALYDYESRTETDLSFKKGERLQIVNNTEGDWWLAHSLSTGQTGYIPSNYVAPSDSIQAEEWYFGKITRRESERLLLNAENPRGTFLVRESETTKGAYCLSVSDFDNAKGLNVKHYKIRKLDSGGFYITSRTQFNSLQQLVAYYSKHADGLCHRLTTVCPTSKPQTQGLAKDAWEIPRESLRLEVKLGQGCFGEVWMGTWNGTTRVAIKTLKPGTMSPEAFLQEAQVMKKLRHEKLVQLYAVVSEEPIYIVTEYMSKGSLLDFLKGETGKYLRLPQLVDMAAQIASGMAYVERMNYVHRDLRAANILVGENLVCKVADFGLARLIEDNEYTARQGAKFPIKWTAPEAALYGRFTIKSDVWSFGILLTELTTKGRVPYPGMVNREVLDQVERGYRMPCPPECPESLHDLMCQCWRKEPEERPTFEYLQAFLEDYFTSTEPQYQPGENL
Sequence of GSK3α (P49840 whole entry): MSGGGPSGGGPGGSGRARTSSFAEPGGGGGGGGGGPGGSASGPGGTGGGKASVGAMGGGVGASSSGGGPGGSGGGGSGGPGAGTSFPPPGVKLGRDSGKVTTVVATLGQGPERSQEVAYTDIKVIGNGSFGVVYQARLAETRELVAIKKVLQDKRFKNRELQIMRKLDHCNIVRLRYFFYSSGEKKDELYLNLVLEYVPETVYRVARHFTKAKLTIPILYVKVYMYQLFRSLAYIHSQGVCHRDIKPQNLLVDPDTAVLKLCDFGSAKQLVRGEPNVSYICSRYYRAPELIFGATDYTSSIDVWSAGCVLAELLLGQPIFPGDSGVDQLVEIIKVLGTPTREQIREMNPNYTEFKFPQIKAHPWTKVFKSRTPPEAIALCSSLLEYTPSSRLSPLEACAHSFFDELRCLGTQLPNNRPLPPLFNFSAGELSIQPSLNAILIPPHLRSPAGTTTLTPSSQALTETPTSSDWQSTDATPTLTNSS
Sequence of p38 MAPKα (Q16539 whole entry): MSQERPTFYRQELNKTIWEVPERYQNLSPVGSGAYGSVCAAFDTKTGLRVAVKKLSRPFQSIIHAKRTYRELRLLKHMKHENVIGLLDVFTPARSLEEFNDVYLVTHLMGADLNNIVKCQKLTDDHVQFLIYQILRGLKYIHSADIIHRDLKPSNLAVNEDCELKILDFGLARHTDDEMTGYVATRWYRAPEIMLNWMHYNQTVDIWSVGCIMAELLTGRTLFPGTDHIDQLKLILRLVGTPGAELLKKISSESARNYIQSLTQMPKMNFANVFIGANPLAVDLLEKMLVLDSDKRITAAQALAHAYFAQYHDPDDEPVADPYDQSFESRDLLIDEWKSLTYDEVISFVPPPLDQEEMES

As to `CC(C)c1cc(NC(=O)Nc2ccc(Oc3cc(Nc4ccc5[nH]ncc5c4)ncn3)c3ccccc23)n(-c2ccc(=O)n(CCO)c2)n1` [Example 84, 1-(4-((6-((1H-indazol-5-yl)amino)pyrimidin-4-yl)oxy)naphthalen-1-yl)-3-(1-(1-(2-hydroxyethyl)-6-oxo-1,6-dihydropyridin-3-yl)-3-isopropyl-1H-pyrazol-5-yl)urea], the IC50 against p38 MAPKα is below 1.5 nM; at cSrc, 3 nM; against Syk, 12 nM; against GSK3α, 278 nM; in data set [2], 217 nM; in data set [3], above 152 nM. Besides, the EC50 in data set [1] was 147 nM. For the same compound, the “MTT Assay Cell viability at time point in d-U937 cells 4 h” value in the data set on d-U937 cells was “−ve (−ve and +ve indicate that the value is below and above respectively, the no significant effect threshold, defined as 30% inhibition at 1 μg/mL at the time point indicated.)”. Further, the “MTT Assay Cell viability at time point in d-U937 cells 24 h” value with d-U937 cells is “−ve (−ve and +ve indicate that the value is below and above respectively, the no significant effect threshold, defined as 30% inhibition at 1 μg/mL at the time point indicated.)”.

Take `COc1ccc(-n2nc(C(C)(C)C)cc2NC(=O)Nc2ccc(Oc3ccnc(Nc4ccc5[nH]ccc5c4)n3)c3ccccc23)cc1` [Example 38, 1-(4-((2-((1H-indol-5-yl)amino)pyrimidin-4-yl)oxy)naphthalen-1-yl)-3-(3-(tert-butyl)-1-(4-methoxyphenyl)-1H-pyrazol-5-yl)urea]: the IC50 was 184 nM against p38 MAPKα; 10 nM on cSrc; 26 nM on Syk; above 1560 nM at GSK3α; 1.1 nM in data set [2]; 2.5 nM in data set [3]. Also, the EC50 in data set [1] is 1.8 nM. Further, the “MTT Assay Cell viability at time point in d-U937 cells 4 h” value with d-U937 cells was “−ve (−ve and +ve indicate that the value is below and above respectively, the no significant effect threshold, defined as 30% inhibition at 1 μg/mL at the time point indicated.)”. Further, the “MTT Assay Cell viability at time point in d-U937 cells 24 h” value in the data set on d-U937 cells was “−ve (−ve and +ve indicate that the value is below and above respectively, the no significant effect threshold, defined as 30% inhibition at 1 μg/mL at the time point indicated.)”.

For the compound `CC(C)(C)c1cc(NC(=O)Nc2ccc(Oc3ccnc(Nc4ccc5c(c4)C(=O)NC5)n3)c3ccccc23)n(-c2ccc(OCCN3CCOCC3)cc2)n1` [Example 63, 1-(3-(tert-butyl)-1-(4-(2-morpholinoethoxy)phenyl)-1H-pyrazol-5-yl)-3-(4-((2-((3-oxoisoindolin-5-yl)amino)pyrimidin-4-yl)oxy)naphthalen-1-yl)urea], the concentration for half-maximal inhibition (IC50) against p38 MAPKα was 14 nM; against cSrc, below 1 nM; on Syk, 10 nM; against GSK3α, 184 nM; in data set [2] it was 2.8 nM; in data set [3], 0.3 nM. The EC50 in data set [1] is 1.5 nM. Also, the “MTT Assay Cell viability at time point in d-U937 cells 4 h” value with d-U937 cells was “−ve (−ve and +ve indicate that the value is below and above respectively, the no significant effect threshold, defined as 30% inhibition at 1 μg/mL at the time point indicated.)”. Further, the “MTT Assay Cell viability at time point in d-U937 cells 24 h” value in the data set with d-U937 cells is “−ve (−ve and +ve indicate that the value is below and above respectively, the no significant effect threshold, defined as 30% inhibition at 1 μg/mL at the time point indicated.)”.

Turning to `Cc1ccc(-n2nc(C(C)(C)C)cc2NC(=O)Nc2ccc(Oc3ccnc(Nc4ccc5c(cnn5CCN5CCOCC5)c4)n3)c3ccccc23)cc1` [Example 29, 1-(3-(tert-butyl)-1-(p-tolyl)-1H-pyrazol-5-yl)-3-(4-((2-((1-(2-morpholinoethyl)-1H-indazol-5-yl)amino)pyrimidin-4-yl)oxy)naphthalen-1-yl)urea], the 50% inhibitory concentration (IC50) at p38 MAPKα stood at 57 nM; against cSrc, 12 nM; against Syk, 29 nM; against GSK3α it was 582 nM; in data set [2], 21.1 nM; in data set [3], 0.9 nM. Besides, the EC50 in data set [1] worked out at 9.9 nM. The “MTT Assay Cell viability at time point in d-U937 cells 4 h” value with d-U937 cells was “−ve (−ve and +ve indicate that the value is below and above respectively, the no significant effect threshold, defined as 30% inhibition at 1 μg/mL at the time point indicated.)”. Further, the “MTT Assay Cell viability at time point in d-U937 cells 24 h” value with d-U937 cells is “−ve (−ve and +ve indicate that the value is below and above respectively, the no significant effect threshold, defined as 30% inhibition at 1 μg/mL at the time point indicated.)”.

Take `CC(C)(C)c1cc(NC(=O)Nc2ccc(Oc3ccnc(Nc4ccc5sncc5c4)n3)c3ccccc23)n(-c2ccc(OCCN3CCOCC3)cc2)n1` [Example 78, 1-(4-((2-(benzo[d]isothiazol-5-ylamino)pyrimidin-4-yl)oxy)naphthalen-1-yl)-3-(3-(tert-butyl)-1-(4-(2-morpholinoethoxy)phenyl)-1H-pyrazol-5-yl)urea]: the half-inhibitory concentration (IC50) on p38 MAPKα was 139 nM; on cSrc, 8 nM; against Syk it was 33 nM; on GSK3α, 2420 nM; in data set [2], 7.4 nM; in data set [3], 7.9 nM. The EC50 in data set [1] was 4.7 nM. In the data set with d-U937 cells, the “MTT Assay Cell viability at time point in d-U937 cells 4 h” value was “−ve (−ve and +ve indicate that the value is below and above respectively, the no significant effect threshold, defined as 30% inhibition at 1 μg/mL at the time point indicated.)”. Also, in the data set with d-U937 cells, the “MTT Assay Cell viability at time point in d-U937 cells 24 h” value was “−ve (−ve and +ve indicate that the value is below and above respectively, the no significant effect threshold, defined as 30% inhibition at 1 μg/mL at the time point indicated.)”.

With `CC(C)(C)c1cc(NC(=O)Nc2ccc(Oc3ccnc(Nc4ccc5c(cnn5CCN5CCOCC5)c4)n3)c3ccccc23)n(-c2ccc(OCCN3CCOCC3)nc2)n1` [Example 92, 1-(3-(tert-butyl)-1-(6-(2-morpholinoethoxy)pyridin-3-yl)-1H-pyrazol-5-yl)-3-(4-((2-((1-(2-morpholinoethyl)-1H-indazol-5-yl)amino)pyrimidin-4-yl)oxy)naphthalen-1-yl)urea], the IC50 was 5 nM against p38 MAPKα; below 1 nM against cSrc; below 1 nM against Syk; 569 nM at GSK3α; 11.5 nM in data set [2]; 5.3 nM in data set [3]. Further, in data set [1], the EC50 worked out at 1.5 nM. In addition, the “MTT Assay Cell viability at time point in d-U937 cells 4 h” value with d-U937 cells was “−ve (−ve and +ve indicate that the value is below and above respectively, the no significant effect threshold, defined as 30% inhibition at 1 μg/mL at the time point indicated.)”. In addition, the “MTT Assay Cell viability at time point in d-U937 cells 24 h” value with d-U937 cells was “−ve (−ve and +ve indicate that the value is below and above respectively, the no significant effect threshold, defined as 30% inhibition at 1 μg/mL at the time point indicated.)”.

`Cc1ccc(-n2nc(C(C)(C)C)cc2NC(=O)Nc2ccc(Oc3ccnc(Nc4cc(C)c5[nH]ncc5c4)n3)c3ccccc23)cc1` [Example 27, 1-(3-(tert-butyl)-1-(p-tolyl)-1H-pyrazol-5-yl)-3-(4-((2-((7-methyl-1H-indazol-5-yl)amino)pyrimidin-4-yl)oxy)naphthalen-1-yl)urea]: the IC50 against p38 MAPKα was 263 nM; against cSrc it was 11 nM; against Syk, 17 nM; at GSK3α, above 1570 nM; in data set [2], 0.7 nM; in data set [3] it was 2.4 nM. Besides, the EC50 in data set [1] amounted to 2 nM. The “MTT Assay Cell viability at time point in d-U937 cells 4 h” value in the data set on d-U937 cells was “−ve (−ve and +ve indicate that the value is below and above respectively, the no significant effect threshold, defined as 30% inhibition at 1 μg/mL at the time point indicated.)”. The “MTT Assay Cell viability at time point in d-U937 cells 24 h” value with d-U937 cells is “−ve (−ve and +ve indicate that the value is below and above respectively, the no significant effect threshold, defined as 30% inhibition at 1 μg/mL at the time point indicated.)”.
